Data as given in paper PMC11220827 (Frontiers in Pharmacology, 2024).
Like-named read-outs stand apart in the source and are kept apart here.

Assays:
[1] = test system: HepG2 cells; test: cells; assay type: cell-based
[2] = biological target: Transthyretin (TTR) (Homo sapiens, UniProt P02766); details: reference
Experimental: DMSO (1% compound stock in incubation mixture). The incubation mixture was transferred to 96 -
was measured on a Berthold luminometer.
Serial dilutions of the compounds were incubated in Tris -buffer (pH 8.0) overnight at 4°C in the
incubation mixture). After incubation, TTR-bound and free T4 were separated on a Bio-Gel P-6DG
column. The eluate was added to assay medium after which TRβ CALUX cells were exposed for 24 h
(see CALUX bioassays). For this TRβ CALUX exposure, serum-free assay medium was used.

[3] = HepG2, 24 h, NR = No response observed

Compound: CC[C@@]1(O)C(=O)OCc2c1cc1n(c2=O)Cc2cc3ccccc3nc2-1 [(S)-(+)-camptothecin, reference compound]
- DNA damage: Phospho-p53: MEC ([1]; HepG2, 24 h): 0.412 µM
- DNA damage: p-H2AX: MEC ([1]; HepG2, 24 h): 1.06 µM
- DNA damage: Phospho-p53: Effect [1, 3]: increase
- DNA damage: p-H2AX: Effect [1, 3]: increase
- AC50 ([1]; HepG2, 24 h, read-out: DNA damage: Phospho-p53: AC50): 1.25 µM
- AC50 ([1]; HepG2, 24 h, read-out: DNA damage: p-H2AX: AC50): 9.1 µM

Compound: CCCCCC[C@H]1C(=O)O[C@H](C)[C@H](NC(=O)c2cccc(NC=O)c2O)C(=O)O[C@@H](C)[C@@H]1OC(=O)CC(C)C [Antimycin A, reference compound]
- Mitochondrial mass: Effect [1, 3]: increase
- AC50 ([1]; Homo sapiens, HepG2, 24 h, read-out: Mitochondrial mass: AC50): 0.245 µM

Compound: c1ccc2c(c1)cc1ccc3cccc4ccc2c1c34 [Benzo(a)pyrene, reference compound]
- AC50 ([1]; Homo sapiens, HepG2, 24 h, read-out: AhR Translocation: AC50): > 100 µM
- AhR Translocation: MEC ([1]; human, 24 h): 0.389 µM

Compound: [Cd+2].[Cl-].[Cl-] [Cadmium (II) chloride, reference compound]
- Metal stress: MTF1: MEC ([1]; HepG2, 24 h): 0.0751 µM
- Metal stress: metallothionein: MEC ([1]; HepG2, 24 h): 0.0751 µM
- Metal stress: MTF1: Effect [1, 3]: increase
- Metal stress: metallothionein: Effect [1, 3]: increase
- AC50 ([1]; HepG2, 24 h, read-out: Metal stress: MTF1: AC50): 7.05 µM
- AC50 ([1]; HepG2, 24 h, read-out: Metal stress: metallothionein: AC50): 7.05 µM

Compound: CC(=O)N(O)CCCCCNC(=O)CCC(=O)N(O)CCCCCNC(=O)CCC(=O)N(O)CCCCCN.CS(=O)(=O)O [Deferoxamine mesylate salt, reference compound]
- Inflammation & pH: HIF1α: Effect [1]: increase
- Inflammation & pH: HIF1α: MEC [1]: 6.2 µM
- Inflammation & pH: ICAM-1: Effect [1]: increase
- Inflammation & pH: ICAM-1: MEC [1]: 17.4 µM
- Inflammation & pH: intracellular pH: Effect [1]: increase
- Inflammation & pH: intracellular pH: MEC [1]: 6.46 µM
- AC50 ([1]; HepG2, 24 h, read-out: Inflammation & pH: HIF1α: AC50): 4.31 µM
- AC50 ([1]; HepG2, 24 h, read-out: Inflammation & pH: ICAM-1: AC50): > 200 µM
- AC50 ([1]; HepG2, 24 h, read-out: Inflammation & pH: intracellular pH: AC50): > 200 µM

Compound: C=C(CC)C(=O)c1ccc(OCC(=O)O)c(Cl)c1Cl [Ethacrynic acid, reference compound]
- AC50 ([1]; Homo sapiens, HepG2, 24 h, read-out: Oxidative stress: HMOX1: AC50): 19.2 µM
- AC50 ([1]; Homo sapiens, HepG2, 24 h, read-out: Oxidative stress: NRF2: AC50): 28 µM
- AC50 ([1]; Homo sapiens, HepG2, 24 h, read-out: Oxidative stress: SRXN1: AC50): 19 µM
- Oxidative stress: HMOX1: MEC ([1]; human, 24 h): 0.824 µM
- Oxidative stress: NRF2: MEC ([1]; human, 24 h): 3.52 µM
- Oxidative stress: SRXN1: MEC ([1]; human, 24 h): 6.17 µM

Compound: C[C@H](CCC(=O)O)C[C@H](C)C[C@H](C)C(=O)/C=C(\O)[C@H](C)C[C@H](C)C/C=C/[C@@H](C)[C@@H](O)[C@@H](C)[C@@H](O)C[C@@H]1CC[C@@](C)([C@H]2CC[C@@](C)([C@@H](C)O)O2)O1 [Ionomycin, reference compound]
- Apoptosis & necrosis: caspase 3/7: MEC ([1]; HepG2, 24 h): 0.0225 µM
- Apoptosis & necrosis: cell cycle arrest: MEC ([1]; HepG2, 24 h): 0.0283 µM
- Inflammation & pH: IL-8: MEC ([1]; HepG2, 24 h): 0.496 µM
- Apoptosis & necrosis: caspase 3/7: Effect [1, 3]: increase
- Apoptosis & necrosis: cell cycle arrest: Effect [1, 3]: decrease
- Inflammation & pH: IL-8: Effect [1, 3]: increase
- AC50 ([1]; Homo sapiens, HepG2, 24 h, read-out: Apoptosis & necrosis: caspase 3/7: AC50): 0.798 µM
- AC50 ([1]; Homo sapiens, HepG2, 24 h, read-out: Apoptosis & necrosis: cell cycle arrest: AC50): 0.056 µM
- AC50 ([1]; Homo sapiens, HepG2, 24 h, read-out: Apoptosis & necrosis: cell membrane permeability: AC50): 30.8 µM
- AC50 ([1]; Homo sapiens, HepG2, 24 h, read-out: Inflammation & pH: IL-8: AC50): > 10 µM

Compound: CCCCS(=N)(=O)CCC(N)C(=O)O [L-BSO, reference compound]
- GSH content: Effect [1]: decrease
- GSH content: MEC [1]: 0.725 µM
- AC50 ([1]; HepG2, 24 h, read-out: GSH content: AC50): 37.5 µM

Compound: Cc1oncc1C(=O)Nc1ccc(C(F)(F)F)cc1 [Leflunamide, reference compound]
- Nuclear size: Effect [1]: increase
- Nuclear size: MEC [1]: 1.18 µM
- AC50 ([1]; HepG2, 24 h, read-out: Nuclear size: AC50): 9.87 µM

Compound: CN(CCOc1ccc(CC2SC(=O)NC2=O)cc1)c1ccccn1 (stereo not shown) [Rosiglitazone, reference compound]
- AC50 ([1]; Homo sapiens, HepG2, 24 h, read-out: Mitochondrial oxidative stress: PGC1α: AC50): > 125 µM
- Mitochondrial oxidative stress: PGC1α: MEC ([1]; human, 24 h): 67.8 µM

Compound: C=C(C)[C@H]1Cc2c(ccc3c2O[C@@H]2COc4cc(OC)c(OC)cc4[C@@H]2C3=O)O1 [Rotenone, reference compound]
- Cellular ATP: MEC ([1]; HepG2, 24 h): < 0.04 µM
- LDH release: MEC ([1]; HepG2, 24 h): 0.138 µM
- Mitochondrial membrane potential: MEC ([1]; HepG2, 24 h): 0.00254 µM
- Oxidative stress (ROS): MEC ([1]; HepG2, 24 h): 0.681 µM
- Seahorse assay: Extracellular acidification rate (ECAR): MEC ([1]; HepG2, 24 h): 0.00546 µM
- Seahorse assay: oxygen consumption rate (OCR): MEC ([1]; HepG2, 24 h): 0.000832 µM
- Seahorse assay: reserve capacity: MEC ([1]; HepG2, 24 h): 0.000657 µM
- AC50 ([1]; Homo sapiens, HepG2, 24 h, read-out: Cellular ATP: AC50): 3.05 µM
- AC50 ([1]; Homo sapiens, HepG2, 24 h, read-out: LDH release: AC50): 57.6 µM
- AC50 ([1]; Homo sapiens, HepG2, 24 h, read-out: Mitochondrial membrane potential: AC50): 0.094 µM
- AC50 ([1]; Homo sapiens, HepG2, 24 h, read-out: Oxidative stress (ROS): AC50): > 100 µM
- AC50 ([1]; Homo sapiens, HepG2, 24 h, read-out: Seahorse assay: Extracellular acidification rate (ECAR): AC50): 0.00549 µM
- AC50 ([1]; Homo sapiens, HepG2, 24 h, read-out: Seahorse assay: oxygen consumption rate (OCR): AC50): 0.00432 µM
- AC50 ([1]; Homo sapiens, HepG2, 24 h, read-out: Seahorse assay: reserve capacity: AC50): 0.00248 µM

Compound: CN[C@H]1CC[C@@H](c2ccc(Cl)c(Cl)c2)c2ccccc21 [Sertraline, reference compound]
- ER stress panel 2: PERK: Effect [1]: increase
- Phospholipidosis: Effect [1]: increase
- Steatosis: Effect [1]: increase
- AC50 ([1]; Homo sapiens, HepG2, 24 h, read-out: ER stress panel 2: PERK: AC50): > 6.25 µM
- ER stress panel 2: PERK: MEC ([1]; human, 24 h): 2.17 µM
- Phospholipidosis: Fold increase ([1]; human, 24 h): 4.16
- Phospholipidosis: MEC ([1]; human, 24 h): 0.0965 µM
- Steatosis: Fold increase ([1]; human, 24 h): 2.02
- Steatosis: MEC ([1]; human, 24 h): 8.36 µM

Compound: [Cl-].[Na+] [Sodium chloride, reference compound]
- Osmotic & heat shock: NFAT: MEC ([1]; HepG2, 24 h): 1430 µM
- Osmotic & heat shock: NFAT: Effect [1, 3]: increase
- AC50 ([1]; HepG2, 24 h, read-out: Osmotic & heat shock: NFAT: AC50): > 80000 µM

Compound: OC[C@@H](O)[C@@H](O)[C@H](O)[C@@H](O)CO [Sorbitol, reference compound]
- Osmotic & heat shock: hsp70: Effect [1]: increase
- AC50 ([1]; Homo sapiens, HepG2, 24 h, read-out: Osmotic & heat shock: hsp70: AC50): 91700 µM
- Osmotic & heat shock: hsp70: MEC ([1]; human, 24 h): 29000 µM

Compound: CC(C)(c1cc(Br)c(O)c(Br)c1)c1cc(Br)c(O)c(Br)c1 [Tetrabromobisphenol A, reference compound]
- TTR binding (thyroid) LOEC, reference compound [2]: −7.9 Log M

Compound: Tunicamycin [reference compound]
- ER stress panel 1: BiP: MEC ([1]; HepG2, 24 h): < 0.391 µM
- ER stress panel 1: ER integrity: MEC ([1]; HepG2, 24 h): 0.453 µM
- ER stress panel 1: XBP1: MEC ([1]; HepG2, 24 h): 0.532 µM
- ER stress panel 2: ATF4: MEC ([1]; HepG2, 24 h): < 0.391 µM
- ER stress panel 2: CHOP: MEC ([1]; HepG2, 24 h): 0.955 µM
- ER stress panel 1: BiP: Effect [1, 3]: increase
- ER stress panel 1: ER integrity: Effect [1, 3]: increase
- ER stress panel 1: XBP1: Effect [1, 3]: increase
- ER stress panel 2: ATF4: Effect [1, 3]: increase
- ER stress panel 2: CHOP: Effect [1, 3]: increase
- AC50 ([1]; HepG2, 24 h, read-out: ER stress panel 1: BiP: AC50): > 1.56 µM
- AC50 ([1]; HepG2, 24 h, read-out: ER stress panel 1: ER integrity: AC50): 2.22 µM
- AC50 ([1]; HepG2, 24 h, read-out: ER stress panel 1: XBP1: AC50): > 3.13 µM
- AC50 ([1]; HepG2, 24 h, read-out: ER stress panel 2: ATF4: AC50): 27.9 µM
- AC50 ([1]; HepG2, 24 h, read-out: ER stress panel 2: CHOP: AC50): > 6.25 µM
